{"source": "PubChem BioAssay AID1963981", "about": "(Molecular Pharmacology Branch, DTP, NCI, 2024)", "system": "354836-022-R-J1-PDC multicell spheroid viability", "assay": "Anticancer human tumor 354836-022-R-J1-PDC patient-derived head and neck squamous cell carcinoma cell line growth inhibition [PI3K]", "conditions": "for pIC50: curve of first compound; for viability, T/C: stronger effect = lower value", "excerpt": "Combinatorial screen of targeted agents with the PI3K inhibitors inavolisib, alpelisib, duvelisib, and copanlisib in multi-cell type tumor spheroids\nA high-throughput screen of multi-cell type tumor spheroids was designed to identify active combinations of targeted small molecules and PI3K pathway inhibitors. Complex spheroids include a stromal component modeled by human endothelial cells (HUVEC) and fibroblasts modeled by human mesenchymal stem cells (MSCs). The concentration ranges selected for each drug and investigational agent were based upon clinically achievable concentrations if the clinical Cmax of the agent was known.\nCompounds. The drugs and investigational agents: inavolisib (NSC800729), alpelisib (NSC765974), duvelisib (NSC772469), copanlisib (NSC816437), ipatasertib (NSC767898), afuresertib (NSC778305), talazoparib (NSC767125), sapanisertib (NSC764658), selumetinib (NSC741078), tovorafenib (DAY101, NSC766906), vemurafenib (NSC761431), ravoxertinib (NSC781343), sotorasib (NSC818433), MRTX1133 (NSC 836407), abemaciclib (NSC 768073), palbociclib (NSC758247), venetoclax (NSC 766270), SY5609 (NSC837396), enzalutamide (NSC755605), and darolutamide (NSC825331), were obtained from the National Cancer Institute (NCI) Developmental Therapeutics Program Chemical Repository. The FDA-approved anticancer drug set is available from the NCI Developmental Therapeutics Program. […] The stock solutions were prepared in dimethyl sulfoxide (DMSO, Sigma-Aldrich, St. Louis, MO, cat. D2650) at 800-fold the tested concentration and stored at -70 degrees C prior to their use. All drugs and investigational agents were tested over a range starting from a high concentration at or near the clinical Cmax and decreasing in half-log increments. If the clinical Cmax for an agent had not been determined, the highest concentration tested was 10 microM.\nCell Culture. All cells were maintained in an incubator at 37 degrees C and 5% CO2 with 95% humidity. The PDC lines were cultured according to standard operating procedures established by the NCI PDMR (https://pdmr.cancer.gov/sops/default.htm). All PDCs were thawed and cultured in Matrigel-coated flasks prepared with a working solution of 1X Ham's F-12 nutrient mix, without supplementation (Invitrogen, Waltham, MA, cat. 11765054), 100 U/mL penicillin-streptomycin (Invitrogen, cat. 15140122), and 2.5% Matrigel (Corning Inc., Corning, NY, cat. 354248) for the first three passages. The 354836-022-R-J1-PDC, 475296-252-R-J1-PDC, and 997726-040-R-J2-PDC lines were cultured in 6A media, which includes advanced DMEM/F-12 (Thermo Fisher Scientific, cat. 12634028), 10 mM HEPES (Thermo Fisher Scientific, cat. 15630080), 1X GlutaMAX supplement (Thermo Fisher Scientific, cat. 35050061), 0.1 mg/mL primocin (InvivoGen, San Diego, CA, cat. ant-pm-2), 10% defined fetal bovine serum, heat inactivated (HyClone Laboratories Inc., Logan, UT, cat. SH30070.03HI), 50% L-WRN conditioned media (ATCC, cat. CRL-3276), 1.25 mM N-Acetyl-L-cysteine (Sigma-Aldrich, cat. A9165), 10 mM nicotinamide (Sigma-Aldrich, cat. N0636), 1X B-27 supplement (Thermo Fisher Scientific, cat. 17504044), 1X N-2 supplement (Thermo Fisher Scientific, cat. 17502048), and 10 microM Y-27632 dihydrochloride (Tocris Bioscience, Bristol, United Kingdom, cat. 1254). The 624824-186-R-J2-PDC line was cultured in 6C/Colon 1B media, which includes all 6A media components plus 50 ng/mL human EGF recombinant protein (Thermo Fisher Scientific, cat. PHG0311). […]", "note": "pIC50: −log10 of the molar value.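 Also: spheroids exposed to agents for seven days before the viability read.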"}
{"smiles": "CC1(C)CCC(Nc2ncc(C(F)(F)F)c(-c3c[nH]c4c(P(C)(C)=O)c(C#N)ccc34)n2)CN1", "note": "(stereo not drawn) + COc1c(OCCCN2CCOCC2)ccc2c3n(c(=NC(=O)c4cnc(N)nc4)nc12)CCN3", "values": [{"measurement": "pIC50", "setting": "second compound 0.00316 µM", "result": "> 7.50"}, {"measurement": "pIC50", "setting": "second compound 0.01 µM", "result": "> 7.50"}, {"measurement": "pIC50", "setting": "second compound 0.0316 µM", "result": "> 7.50"}, {"measurement": "pIC50", "setting": "second compound 0.1 µM", "result": "> 7.50"}, {"measurement": "pIC50", "setting": "second compound 0.316 µM", "result": "> 7.50"}, {"measurement": "pIC50", "setting": "second compound 1 µM", "result": "> 7.50"}, {"measurement": "viability, T/C", "setting": "second compound 0.00316 µM, first compound 0.0316 µM", "result": 12.1, "unit": "%"}, {"measurement": "viability, T/C", "setting": "second compound 0.00316 µM, first compound 0.1 µM", "result": 11.7, "unit": "%"}, {"measurement": "viability, T/C", "setting": "second compound 0.00316 µM, first compound 0.316 µM", "result": 11.3, "unit": "%"}, {"measurement": "viability, T/C", "setting": "second compound 0.00316 µM, first compound 1 µM", "result": 12.8, "unit": "%"}, {"measurement": "viability, T/C", "setting": "second compound 0.00316 µM, first compound 3.16 µM", "result": 15.3, "unit": "%"}, {"measurement": "viability, T/C", "setting": "second compound 0.00316 µM, first compound 10 µM", "result": 3.31, "unit": "%"}, {"measurement": "viability, T/C", "setting": "second compound 0.01 µM, first compound 0.0316 µM", "result": 13.1, "unit": "%"}, {"measurement": "viability, T/C", "setting": "second compound 0.01 µM, first compound 0.1 µM", "result": 12.1, "unit": "%"}, {"measurement": "viability, T/C", "setting": "second compound 0.01 µM, first compound 0.316 µM", "result": 13, "unit": "%"}, {"measurement": "viability, T/C", "setting": "second compound 0.01 µM, first compound 1 µM", "result": 12.4, "unit": "%"}, {"measurement": "viability, T/C", "setting": "second compound 0.01 µM, first compound 3.16 µM", "result": 15.3, "unit": "%"}, {"measurement": "viability, T/C", "setting": "second compound 0.01 µM, first compound 10 µM", "result": 1.45, "unit": "%"}, {"measurement": "viability, T/C", "setting": "second compound 0.0316 µM, first compound 0.0316 µM", "result": 9.55, "unit": "%"}, {"measurement": "viability, T/C", "setting": "second compound 0.0316 µM, first compound 0.1 µM", "result": 11.7, "unit": "%"}, {"measurement": "viability, T/C", "setting": "second compound 0.0316 µM, first compound 0.316 µM", "result": 11.4, "unit": "%"}, {"measurement": "viability, T/C", "setting": "second compound 0.0316 µM, first compound 1 µM", "result": 14.8, "unit": "%"}, {"measurement": "viability, T/C", "setting": "second compound 0.0316 µM, first compound 3.16 µM", "result": 13.4, "unit": "%"}, {"measurement": "viability, T/C", "setting": "second compound 0.0316 µM, first compound 10 µM", "result": 1.98, "unit": "%"}, {"measurement": "viability, T/C", "setting": "second compound 0.1 µM, first compound 0.0316 µM", "result": 9.95, "unit": "%"}, {"measurement": "viability, T/C", "setting": "second compound 0.1 µM, first compound 0.1 µM", "result": 8.41, "unit": "%"}, {"measurement": "viability, T/C", "setting": "second compound 0.1 µM, first compound 0.316 µM", "result": 9.5, "unit": "%"}, {"measurement": "viability, T/C", "setting": "second compound 0.1 µM, first compound 1 µM", "result": 9.61, "unit": "%"}, {"measurement": "viability, T/C", "setting": "second compound 0.1 µM, first compound 3.16 µM", "result": 8.75, "unit": "%"}, {"measurement": "viability, T/C", "setting": "second compound 0.1 µM, first compound 10 µM", "result": 0.91, "unit": "%"}, {"measurement": "viability, T/C", "setting": "second compound 0.316 µM, first compound 0.0316 µM", "result": 3.76, "unit": "%"}, {"measurement": "viability, T/C", "setting": "second compound 0.316 µM, first compound 0.1 µM", "result": 3.49, "unit": "%"}, {"measurement": "viability, T/C", "setting": "second compound 0.316 µM, first compound 0.316 µM", "result": 5.12, "unit": "%"}, {"measurement": "viability, T/C", "setting": "second compound 0.316 µM, first compound 1 µM", "result": 4.26, "unit": "%"}, {"measurement": "viability, T/C", "setting": "second compound 0.316 µM, first compound 3.16 µM", "result": 4.19, "unit": "%"}, {"measurement": "viability, T/C", "setting": "second compound 0.316 µM, first compound 10 µM", "result": 0.4, "unit": "%"}, {"measurement": "viability, T/C", "setting": "second compound 1 µM, first compound 0.0316 µM", "result": 1.25, "unit": "%"}, {"measurement": "viability, T/C", "setting": "second compound 1 µM, first compound 0.1 µM", "result": 1.35, "unit": "%"}, {"measurement": "viability, T/C", "setting": "second compound 1 µM, first compound 0.316 µM", "result": 1.58, "unit": "%"}, {"measurement": "viability, T/C", "setting": "second compound 1 µM, first compound 1 µM", "result": 1.61, "unit": "%"}, {"measurement": "viability, T/C", "setting": "second compound 1 µM, first compound 3.16 µM", "result": 1.3, "unit": "%"}, {"measurement": "viability, T/C", "setting": "second compound 1 µM, first compound 10 µM", "result": 0.43, "unit": "%"}]}
{"smiles": "CCCS(=O)(=O)Nc1ccc(F)c(C(=O)c2c[nH]c3ncc(-c4ccc(Cl)cc4)cc23)c1F", "values": [{"measurement": "viability, T/C", "setting": "compound 0.1 µM", "result": "109% [middle of 4 runs]"}, {"measurement": "viability, T/C", "setting": "compound 0.316 µM", "result": "104% [middle of 4 runs]"}, {"measurement": "viability, T/C", "setting": "compound 1 µM", "result": "91.5% [middle of 4 runs]"}, {"measurement": "viability, T/C", "setting": "compound 3.16 µM", "result": "86% [middle of 4 runs]"}, {"measurement": "viability, T/C", "setting": "compound 10 µM", "result": "24.8% [middle of 4 runs]"}, {"measurement": "IC50", "setting": "curve of compound", "result": "6.06 µM [middle of 4 runs]"}]}
